Data taken from publication PMC6278556, “An Accurate and Effective Method for Measuring Osimertinib by UPLC-TOF-MS and Its Pharmacokinetic Study in Rats” (Molecules, 2018).
Where two headings read alike, the source gives them in different places.

What was measured:
[1] = stated without source; cited from earlier work
[2] = Stability of osimertinib in rat plasma under various storage conditions; type: in vitro ADME
Experimental: The stabilities of this method, which include the freeze–thaw stability, autosampler stability, short-term stability and long-term stability, were evaluated through three QC samples after the sample preparation method. […] In addition, the long-term stability was evaluated through the determination of three QC samples that were kept at −80 °C for 30 days. All samples were considered stable with RSDs < ±15%.

[3] = Pharmacokinetic study in SD rats after oral administration; type: in vivo; conditions: n = 7, mean ± SD, non-compartmental
Experimental: The pharmacokinetic study of osimertinib was applied to seven male SD rats using oral administration by gavage and the dosage was 4.5 mg/kg. Osimertinib was diluted and suspended by 0.5% sodium carboxymethylcellulose. No less than 0.3 mL rat plasma was sampled at 0, 1, 2, 3, 4, 5, 6, 7, 8, 10, 12, 24, 36, and 48 h after oral administration through the oculi chorioideae vein under the condition of light ether anesthesia. After 10 min centrifuging of all analytes at 5000× g, the supernatant was collected and frozen at −40 °C until analysis. The use of animals in the presented study was permitted by the Ethics Committee of the Hebei Medical University, and all animal studies were carried out according to the Guidance for the Care and Use of Laboratory Animals of the US National Institute of Health.
Ten microliters of IS solution (500 ng/mL) was prepared in 100 μL rat plasma and vortex-mixed for 20 s. After that step, 500 μL of acetonitrile was added to precipitate the protein. Then, the mixture was vortexed for 1 min and centrifuged at 12,000 rpm for 10 min. The supernatant was transferred into a new Eppendorf tube and evaporated to dryness through nitrogen gas at 45 °C. After 100 μL of acetonitrile was added to reconstitute the residue and vortexed for 1 min, all samples were centrifuged at 12,000× g for 10 min. Finally, 80 μL of the supernatant was collected and injected into UPLC sample vials before use.
Dynamic background subtraction is a novel technique performed using the Analyst software (AB Sciex, Foster City, CA, USA). In addition, the data of the pharmacokinetic study of osimertinib were collected and calculated by the DAS 2.1.1 software in the non-compartmental mode (Mathematical Pharmacology Professional Committee of China, Shanghai, China).

[4] = Sprague-Dawley (SD), rat, plasma, male SD rats, oral 4.5 mg/kg

C=CC(=O)Nc1cc(Nc2nccc(-c3cn(C)c4ccccc34)n2)c(OC)cc1N(C)CCN(C)C [Osimertinib, N-(2-{2dimethylaminoethyl-methylamino}-4-methoxy-5-{[4-(1-methylindol-3-yl)pyrimidin-2yl]amino}phenyl)prop-2-enamide]
pKa [1]: 13.64
Stability in words ([2]; plasma samples, storage temperature (−80 °C) for at least 30 days): stable
Stability in words ([2]; rat plasma, autosampler temperature (4 °C) for 24 h): good stability
Stability in words ([2]; rat plasma, room temperature (25 °C) for 24 h): good stability
Stability in words ([2]; rat plasma, three freeze (−80 °C) and thaw (0 °C) cycles): remained stable
AUC(0-inf) [3, 4]: 426 ± 81.7 ng·h/mL
AUC(0-t) [3, 4]: 382 ± 69 ng·h/mL
Cmax [3, 4]: 28.5 ± 3.97 ng/mL
MRT [3, 4]: 14.5 ± 1.91 h
Vd/F ([3]; Sprague-Dawley (SD), rat, plasma, male SD rats, oral 4.5 mg/kg, read-out: Vz/F (distribution volume)): 234 ± 66.7 L/kg
half-life ([3]; Sprague-Dawley (SD), rat, plasma, male SD rats, oral 4.5 mg/kg, read-out: t1/2z (terminal half-life) (converted)): 15 ± 3.44 h
CLz/F (clearance) ([3]; male SD rats, oral 4.5 mg/kg): 180.7 ± 32.3 mL/min/kg
tmax ([3]; male SD rats, oral 4.5 mg/kg, 4.5 mg/kg): 4.80 ± 1.10 h
CL/F ([3]; male, Sprague-Dawley (SD), rat, plasma, po, 4.5 mg/kg, read-out: CLz/F (clearance) (converted)): ~181 mL/min/kg
tmax ([3]; male, Sprague-Dawley (SD), rat, plasma, po, 4.5 mg/kg, read-out: tmax): 4.5 h
